Measurements: patent US20210154156A1, “APPLICATION OF COMPOUND IN INHIBITING AB ACCUMULATION AND TREATING ALZHEIMER'S DISEASE” (NORTHEAST NORMAL UNIVERSITY, priority 2018, published 2021)
Structures can show the parent of a compound that is named as a salt.

Experiments:
[1] = tested on: APP/PS1 double transgenic mice; assay: Morris water maze in APP/PS1 transgenic mice; type: in vivo; conditions: intragastric administration for 2 months
Text: (§1) The wild-type (WT) and APP/PS1 double transgenic mice used in the experiment of the present invention were purchased from the Model Animal Research Institute of Nanjing University, and the mouse genes were identified in strict accordance with the PCR method provided.
In the Morris water maze experiment, the mouse water maze training was two days (data not recorded). The mice were placed into the pool from 4 entry points (quadrants) facing the pool wall. The platform was hidden 1 cm underwater, and the water temperature was kept at 23° C. , and the training lasted for 2 minutes. […] The experiment phase started from the third day, and the experiment was continued for 6 days. Each mouse was tested once a day. During the experiment, the mice were respectively placed into the pool from 4 entry points (quadrants) facing the pool wall.
The time was recorded from the mice entering the water to the mice finding and staying in the underwater hidden platform. That was called as the incubation period. On the eighth day, the platform was removed, and each mouse was launched from the farthest position of the original platform and swam freely for 2 minutes. The swimming time of the animal in the target quadrant (the area where the platform located), the number of times of traversing the platform, the path and other main parameters were tracked and recorded by the miniature camera and analyzed.

Aβ protein monomer = molecular target: T1, Aβ protein monomer (Homo sapiens, UniProt P05067); assay: Circular dichroism spectrum experiment (CD) of Aβ β-sheet formation; type: biochemical; conditions: Aβ 20 uM; drug 10, 20, 40 uM; 12 hours 37° C.
T1 construct: purchased Nanjing Elutrian Biological Co. Ltd
Procedure: The A beta monomer was mixed with a drug, the final concentration of Aβ was 20 uM, the final concentrations of the drug were 0 uM, 10 uM, 20 uM and 40 uM respectively, and after 12 hours incubation at 37° C., a J-810 spectrometer (Jayasco, Japan) was used for detection. The wavelength range was 190-250 nm, the resolution was 0.5 nm, the spectrum width was 2 nm, the scanning speed was 100 nm/min, the response time was 1 s, and the measuring temperature was normal temperature. The solution was added to a quartz cuvette with an optical path of 0.1 mm for measurement, and each experiment was repeated three times. Subtracting the buffer curve from each scan curve as the experimental result, each experiment was repeated three times, and the average value was given.

APP/PS1 transgenic mice = assay: Thioflavin S and Congo red staining of brain Aβ plaques in APP/PS1 transgenic mice; type: in vivo
Text: as §1
10-month-old AD mice were anesthetized with 0.4% pentobarbital sodium. Blood was taken by perfusing the atria. 4% paraformaldehyde was perfused for whole body fixation. The brain tissue was taken and weighed. The hemibrains were put into 4% paraformaldehyde solution and used for histopathology. The other half was stored in a cryotube at −80° C. for biochemical analysis. The brain tissues fixed with 4% paraformaldehyde were embedded in wax and sliced. The plaques in the cerebral cortex and hippocampus were stained with Thioflavin S and Congo Red. Pathological images were obtained by digital microscope and fluorescence microscope and quantitatively analyzed.

Aβ42 monomers = molecular target: T2, Aβ42 monomers (Homo sapiens, UniProt P05067); assay: Thioflavin T test (ThT) of Aβ42 monomer aggregation; type: biochemical; conditions: Aβ 20 uM; drug 10, 20, 40 uM; 37° C. 24 hours; concentration-dependent
T2 construct: purchased Nanjing Elutrian Biological Co. Ltd
Procedure: The protein A beta protein was provided by Nanjing Elutrian Biological Co. Ltd. and the purity was greater than 95%. The compound macroflavin was provided by Shanghai Yuan-Ye biological company. The Aβ monomer powder was stored at −80° C., standing for 30 minutes at room temperature for the first time, then diluted with hexafluoroisopropanol (HFIP) to 1.0 mg/mL. It stood for at least 2 hours, carrying out ultrasonic 30 minutes to destroy the existing multi-polymer structure, standing and drying at low temperature, was immediately stored at −20° C. Thioflavin T was purchased from Sigma (cargo number T3516-5 G). 0.032 g of THT powder was weighed and dissolved in 20 mL of 20 mM Tris-HCl (pH 7.4) solution to obtain a 5 mM THT mother liquor, and was diluted to 5 uM when used.

[2] = tested on: APP/PS1 double transgenic mice; assay: Y maze in APP/PS1 transgenic mice; type: in vivo; conditions: after two months of treatment
Text: as §1
In the Y maze experiment, three black striped long arms were marked A, B, and C with the same appearance were combined in a Y shape. The mouse was put in the A arm, and recorded as an error if it turned back from the other long arm during free movement, such as ABA, BCB, etc., recalculated with this arm as the starting point, such as ABACBABCBA. The experiment time for each mouse lasted 8 minutes. When the experiment was completed, the Y labyrinth was cleaned and disinfected with alcohol, and the experiment was performed on the next mouse after drying.

[3] = tested on: human neuroma blasts SH-SY5Y; assay: MTT test of Aβ42 oligomer-mediated neurotoxicity in SH-SY5Y; type: cell-based
Procedure: The cells used in the Aβ42 oligomer-mediated neurotoxicity damage experiment were human neuroma blasts SH-SY5Y, incubated in DME medium of 10% FBS at 37° C. The control group without Aβ protein and the experimental group with added drug were cultured overnight at 37° C. with slow shaking, and transferred to a 96-well cell culture plate containing SH-SY5Y. The final concentration of Aβ protein was 1 uM and the final concentration of drug was 0.25 uM. 0.5 uM, 1 uM and 2 uM, three parallel holes for each concentration, action time 3 hours, MTT method 490 nm wavelength tested 5 times to analyze cell proliferation.

Aβ42 monomer = molecular target: T3, Aβ42 monomer (Homo sapiens, UniProt P05067); assay: Transmission electron microscopy (TEM) of Aβ42 fiber formation; type: biochemical; conditions: 37° C. 24 hours; concentration-dependent
T3 construct: purchased Nanjing Elutrian Biological Co. Ltd
Procedure: The preparation was the same as that of Example 1. Then, the Aβ protein sample was incubated at 37° C. for 24 hours, dropped on the surface of a 300 mesh carbon film copper mesh, dried in air, dyed with 2% (w/v) phosphotungstate sodium salt negative for 30 seconds, standing at room temperature for about 4 hours, then the JEM-100CXII transmission electron microscope system (JEOL Inc., Tokyo, Japan) was used to detect and take pictures with an acceleration voltage of 80 kV.

formed Aβ fibers = molecular target: T4, formed Aβ fibers (Homo sapiens, UniProt P05067); assay: Depolymerization of the formed Aβ fibrous structure (ThT and TEM); type: biochemical
T4 construct: purchased Nanjing Elutrian Biological Co. Ltd
Procedure: The preparation was the same as that shown in Examples 1 and 2, except that the Aβ42 protein was first incubated at 37° C. for 48 hours, then the drug effect was added, the sample was taken at −20 ° C. every 6 hours, after 48 hours, using all of the samples for ThaT and TEAM tests.

T4 sequence (P05067 672-713 limits assumed): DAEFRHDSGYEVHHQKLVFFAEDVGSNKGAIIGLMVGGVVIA
T1 sequence (P05067 672-713 limits assumed): as above
T2 sequence (P05067 672-713 limits assumed): as above
T3 sequence (P05067 672-713 limits assumed): as above

| Structure (SMILES) | Effect on improving symptoms of AD mice (Morris water maze) [1] | Formation of the β-sheet structure of Aβ monomer (CD) (Aβ protein monomer) | Incubation period for AD mice to find the platform (Morris water maze) ([1]; 8-month-old APP/PS1 mice) | Number of times AD mice crossed the virtual platform (Morris water maze) ([1]; platform removed) | Plaque effect compared with positive control nourishing blood serum brain drug group (APP/PS1 transgenic mice; 10-month-old AD mice) | Number of stained Aβ deposition plaques in cortex or hippocampus (Thioflavin S, Congo red) vs normal saline AD mice (APP/PS1 transgenic mice; 10-month-old AD mice after 2 months intragastric administration) | ThT fluorescence intensity (Aβ42 monomer aggregation) vs control group without medicine (Aβ42 monomers) | Y maze effect compared with Arishen treatment group [2] | Correct rate in Y maze of AD mice ([2]; saline AD about 58%, WT about 82%) | MTT absorbance value (protection from Aβ42 oligomer-mediated neurocytotoxicity) vs control group without drug ([3]; Aβ 1 uM, drug 0.25, 0.5, 1, 2 uM, 3 hours, 490 nm) | MTT effect compared with positive control curcumin ([3]; when the concentration was low) | Aβ protein fiber density, length and width (TEM) (Aβ42 monomer) | ThT fluorescence intensity of pre-formed Aβ fibers vs non-dosing control (formed Aβ fibers; Aβ42 pre-incubated 37° C. 48 hours, then drug, sampled every 6 hours to 48 hours) | Depolymerization of formed Aβ fibers (TEM) (formed Aβ fibers; after 48 hours of treatment) |
| --- | --- | --- | --- | --- | --- | --- | --- | --- | --- | --- | --- | --- | --- | --- |
| COc1cc2c(cc1OC)C(=O)C(CC1CCN(Cc3ccccc3)CC1)C2 (stereo not drawn) [Arishen, donepezil hydrochloride, reference compound] | limited effect | had no effect |  |  |  |  |  |  |  |  |  |  |  |  |
| Cc1cc(O)c2c(c1)C(=O)c1cc(O)cc(O)c1C2=O [emodin, 1,3,8-trihydroxy-6-methylanthracene-9, 10-dione] |  | significantly reduce | significantly reduced | significantly improved | slightly better | statistically significant reduction | significantly decreased | better than the Arishen treatment group | increased significantly | increased significantly | stronger than that of the positive control curcumin | decreased significantly | remained basically unchanged | could not depolymerize |
